Source: patent US7569568B2, “Cytokine inhibitors” (Boehringer Ingelheim Pharmaceuticals, Inc., priority 2002, dated 2009)

For `COC(=O)c1cn(-c2cc(C(=O)Nc3cc(C(C)(C)C)cc(NS(C)(=O)=O)c3OC)ccc2C)nn1` [Example 1, 1-[5-(5-tert-butyl-3-methanesulfonylamino-2-methoxy-phenylcarbamoyl)-2-methyl-phenyl]-1H-1,2,3-triazole-4-carboxylic acid methyl ester], the melting point was 198 °C.
For `COC(=O)c1cn(-c2cc(C(=O)Nc3cc(C(C)(C)C)cc(NS(C)(=O)=O)c3OC)ccc2Cl)nn1` [Example 8, 1-[5-(5-tert-butyl-3-methanesulfonylamino-2-methoxyphenyl-carbamoyl)-2-chloro-phenyl]-1H-1,2,3-triazole-4-carboxylic acid methyl ester], the melting point was 251 to 252 °C (dec.).
Molecule `COC(=O)c1nnn(-c2cc(C(=O)Nc3cc(C(C)(C)C)cc(NS(C)(=O)=O)c3OC)ccc2C)c1N` [Example 9, 5-amino-1-[5-(5-tert-butyl-3-methanesulfonylamino-2-methoxy-phenylcarbamoyl)-2-methyl-phenyl]-1H-1,2,3-triazole-4-carboxylic acid methyl ester] has a melting point of 204 to 205 °C.
With `COC(=O)c1cn(-c2cc(C(=O)Nc3cc(C(C)(C)C)cc(NS(C)(=O)=O)c3OC)cc(C)c2C)nn1` [Example 16, 1-[5-(5-tert-butyl-3-methanesulfonylamino-2-methoxy-phenylcarbamoyl)-2,3-dimethyl-phenyl]-1H-1,2,3-triazole-4-carboxylic acid methyl ester] the melting point was 199 °C.
Molecule `COc1c(NC(=O)c2ccc(C)c(-n3cc(C(=O)NCc4ccccc4)nn3)c2)cc(C(C)(C)C)cc1NS(C)(=O)=O` [Example 24, 1-[5-(5-tert-butyl-3-methanesulfonylamino-2-methoxy-phenylcarbamoyl)-2-methyl-phenyl]-1H-1,2,3-triazole-4-carboxylic acid benzylamide] has a melting point of 205 to 207 °C.
In the case of `COc1c(NC(=O)c2cc(C)c(C)c(-n3cc(C(=O)NCCN4CCOCC4)nn3)c2)cc(C(C)(C)C)cc1NS(C)(=O)=O` [Example 28, 1-[5-(5-tert-butyl-3-methanesulfonylamino-2-methoxy-phenylcarbamoyl)-2,3-dimethyl-phenyl]-1H-1,2,3-triazole-4-carboxylic acid (2-morpholin-4-yl-ethyl)-amide], the melting point is reported as 206 to 209 °C (dec.).
With `COc1c(NC(=O)c2ccc(C)c(-n3cc(C(N)=O)nn3)c2)cc(C(C)(C)C)cc1NS(C)(=O)=O` [Example 66, 1-[5-(5-tert-butyl-3-methanesulfonylamino-2-methoxyphenyl-carbamoyl)-2-methyl-phenyl]-1H-1,2,3-triazole-4-carboxylic acid amide] the melting point was greater than 250 °C.
Work on `COc1c(NC(=O)c2ccc(C)c(-n3nnc(C(=O)NCC(C)(C)C)c3N)c2)cc(C(C)(C)C)cc1NS(C)(=O)=O` [Example 68, 5-amino-1-[5-(5-tert-butyl-3-methanesulfonylamino-2-methoxy-phenylcarbamoyl)-2-methyl-phenyl]-1H-1,2,3-triazole-4-carboxylic acid (2,2-dimethyl-propyl)-amide] yielded a melting point of 189 to 193 °C.
